Test results: patent US11253589B2, “Modulation of the immune response” (priority 2007, dated 2022)

Columns and labels:
[1] = test system: C57BL/6 mice; assay: EAE induced by immunization with MOG35-55 in CFA; format: in vivo, mouse
[2] = target: T1, AHR (Homo sapiens, UniProt P35869); details: cited from earlier work
T1 sequence (P35869 11-848): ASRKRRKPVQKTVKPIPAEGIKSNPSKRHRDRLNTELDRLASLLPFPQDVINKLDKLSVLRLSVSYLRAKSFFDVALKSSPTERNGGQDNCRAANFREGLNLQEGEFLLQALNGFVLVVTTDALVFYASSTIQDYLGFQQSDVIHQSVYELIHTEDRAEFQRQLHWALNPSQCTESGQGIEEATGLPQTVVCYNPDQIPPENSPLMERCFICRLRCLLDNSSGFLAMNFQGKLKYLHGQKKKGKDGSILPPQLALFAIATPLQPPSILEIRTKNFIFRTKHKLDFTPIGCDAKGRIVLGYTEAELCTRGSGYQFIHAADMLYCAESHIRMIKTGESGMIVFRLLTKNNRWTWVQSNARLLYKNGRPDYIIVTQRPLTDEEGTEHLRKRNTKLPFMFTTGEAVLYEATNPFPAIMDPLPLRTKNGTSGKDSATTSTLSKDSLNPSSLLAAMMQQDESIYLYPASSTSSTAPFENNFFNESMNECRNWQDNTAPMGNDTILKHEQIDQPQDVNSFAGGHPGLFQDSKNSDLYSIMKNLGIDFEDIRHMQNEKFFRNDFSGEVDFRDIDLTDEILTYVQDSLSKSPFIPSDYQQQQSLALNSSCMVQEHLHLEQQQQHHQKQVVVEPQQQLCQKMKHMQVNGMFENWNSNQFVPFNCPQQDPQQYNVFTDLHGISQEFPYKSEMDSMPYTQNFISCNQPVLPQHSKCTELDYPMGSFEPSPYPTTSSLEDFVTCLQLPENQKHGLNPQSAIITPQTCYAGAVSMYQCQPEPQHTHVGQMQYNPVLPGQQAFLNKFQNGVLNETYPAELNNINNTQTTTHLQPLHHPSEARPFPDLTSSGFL

[3] = compared with toxic effects reported for TCDD; cited from earlier work
[4] = test system: CD4+Foxp3:GFP+ Treg; assay: Treg suppressive activity assay; format: cell-based, mouse; details: resveratrol treated cells
Description: Cells were cultured in serum-free X-VIVO 20™ media (BioWhittaker, Walkersville, Md., USA) for 72 hours. During the last 16 hours, cells were pulsed with 1 μCi of [^3H]thymidine (PerkinElmer, Waltham, Mass., USA) followed by harvesting on glass fiber filters and analysis of incorporated [^3H]thymidine in a beta-counter (1450 Microbeta, Trilux, PerkinElmer). Alternatively, culture supernatants were collected […] activation and the cytokine concentration was determined by ELISA using antibodies for IFN-γ, IL-17, IL-4, IL-10 from BD Biosciences and antibodies to TGF-β from R&D Systems. For suppression assays, MACS purified CD4^+CD25^− T cells from naïve C57BL/6 mice (1-5×10^4 cells/well) were stimulated with antibodies to CD3 and C57BL/6 irradiated spleen cells (0.3-1.5×10^4 cells/well) for 3 days in the presence of different ratios of CD4^+ GFP^+ retrovirus-transduced T cells.
To investigate the active suppression of MOG35-55-specific Teff by Treg, Foxp3^gpf knock in mice were immunized with MOG35-55/CFA, treated daily with intreaperitoneal ITE ([…]) and the recall response to MOG35-55 and a mitogenic antibody to CD3 antibody was studied on FACS-sorted CD4^+ T cells and CD4^+ FoxP3:GFP− Teff. […] This suppressed response to MOG35-55 was lost upon removal of the CD4^+FoxP3:GFP^+ Treg (FIG. 26). To further analyze the MOG35-55-specific suppressive activity of the CD4^+FoxP3:GFP^+ Treg, they were cocultured at different ratios and assayed for the suppression of MOG35-55 or anti-CD3-triggered proliferation of CD4^+FoxP3:GFP− Teff form 2D2 mice, which harbor a TCR specific for MOG35-55.

[5] = test system: CD4+Foxp3:GFP- T cells; assay: In vitro conversion of CD4+Foxp3:GFP- T cells into Treg; format: cell-based, mouse; details: resveratrol 50 μM
Description: CD4+ T cells were purified from Foxp3gfp knock in mice using anti-CD4 beads (Miltenyi, Auburn, Calif., USA) and sorted (FACSAria™ cell sorter, BD Biosciences) into naive CD4^+ Foxp3:GFP^− or CD4^+ Foxp3:GFP T cells. CD4^+ Foxp3:GFP^− T cells were stimulated with plate bound 1 μg/ml of anti-CD3 (145-2C11, eBioscience) and 2 μg/ml of anti-CD28 (37.51, eBioscience) for 5 days, supplemented with recombinant IL-2 (50 U/ml) at day 2 and 4, and analyzed by FACS at day 5 for their differentiation into […]. TGFβ1 (2.5 ng/ml) was used as a positive control.
To establish if TCDD triggered the conversion of CD4^+Foxp3^− T cells into new Foxp3^+ Treg cells, FACS sorted CD4^+Foxp3:GFP− T cells were activated in vitro with antibodies to CD3 and CD28 in the presence of TCDD, and the generation of CD4^+Foxp3:GFP^+ Treg was followed by FACS. TGFb1 was used as a positive control.

[6] = test system: CD4+ CD62L+CD45RO- T cells; assay: In vitro differentiation of human naive CD4+ T cells, suppression and real time PCR; format: cell-based; details: 5 days activation with antibodies to CD3 and CD28; TGFb1 2.5 ng/ml or TCDD alone
Description: To investigate the potential of AHR targeting for the induction of human Treg we activated purified naïve CD4^+ CD62L^+CD45RO^− T cells for healthy donors for 5 days with antibodies to CD3 and CD28 in the presence of TCDD 100 nM or TGFb1 2.5 ng/ml or both.
To study the functionality of the putative human Treg induced in the presence of TCDD we studied their suppressive activity of CD4^+ CD25^High and CD4^+CD25^Low T cells following 5 days of activation in the of TCDD or TGFb1 2.5 ng/ml or both.
To investigate the mechanism mediating the suppressive activity of the TCDD-induced Treg, we analyzed them by real time PCR for the expression of several genes that have been previously linked to the suppressive function of Treg. […] Accordingly, IL-10-specific blocking antibodies could interfere with the suppressive activity of Treg induced with TCDD, but not the of those induced with TGFb1 and TCDD (FIG. 42). Thus, TCDD-induced CD4^+CD25^High T cells are FoxP3^− regulatory cells whose suppressive activity is mediated, at least partially, via IL-10, resembling the phenotype of type 1 Treg (Roncarolo et al., Immunol Rev. 212, 28 (2006); Roncarolo and Gregori, Eur J Immunol. 38, 925 (2008)).

Compound: O=Cc1c2c(cc3c1=Nc1ccccc1-3)=Nc1ccccc1-2 [FICZ, 6-formylindolo[3,2-b]carbazole]
- EAE development ([1]; AHR-ligand loaded nanoparticles, 45 femtomoles weekly starting at day 0): worsened the disease

Compound: NCCc1c[nH]c2ccccc12 [TA, tryptamine]
- AHR affinity [2]: high affinity AHR ligands
- EAE suppression ([1]; TA combined with the monoamine oxidase inhibitor Tranylcypromine): effectively suppresses EAE
- toxic effects [3]: do not display the toxic effects

Compound: Oc1ccc(C=Cc2cc(O)cc(O)c2)cc1 [resveratrol]
- suppressive activity of Treg [4]: Decreases in the suppressive activity
- induction of Treg by TGFβ1 and TCDD [5]: interfered with the induction of Treg

Compound: TGFb1: TGFβ1, positive control for Treg induction
- induction of suppressive (regulatory) T cells [6]: did not result in the induction of suppressive T cells
